Results: patent US20260174878A1, “IRAK4 DEGRADATION AGENT AND USE THEREOF” (LEADINGTAC PHARMACEUTICAL (SHAOXING) CO., LTD., priority 2022, published 2026)

Molecular target: T1, IRAK4 protein in normal human PBMCs (Homo sapiens, UniProt Q9NWZ3)
T1 construct: host or cells: normal human PBMCs
T1 sequence (Q9NWZ3 1-460): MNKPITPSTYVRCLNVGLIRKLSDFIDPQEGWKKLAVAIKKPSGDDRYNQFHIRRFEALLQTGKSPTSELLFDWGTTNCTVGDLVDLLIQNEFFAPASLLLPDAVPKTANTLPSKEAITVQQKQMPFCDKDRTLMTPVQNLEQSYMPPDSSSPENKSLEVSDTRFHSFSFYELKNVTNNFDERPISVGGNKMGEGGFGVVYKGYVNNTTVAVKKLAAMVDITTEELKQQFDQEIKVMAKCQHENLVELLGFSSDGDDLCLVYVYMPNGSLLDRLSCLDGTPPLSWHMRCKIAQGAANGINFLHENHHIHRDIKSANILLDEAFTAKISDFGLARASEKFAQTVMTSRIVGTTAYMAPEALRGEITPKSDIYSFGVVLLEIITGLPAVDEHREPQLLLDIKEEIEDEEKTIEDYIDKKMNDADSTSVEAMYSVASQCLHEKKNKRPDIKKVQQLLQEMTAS
Assay: Degradation of IRAK4 protein in normal human PBMCs (AlphaLISA)
Assay type: cell-based
Settings: 24 h incubation
Protocol: The cryopreserved normal human PBMCs (Milestone, PB010C) were thawed and resuspended in RPMI 1640 medium (Gibco, A1049101) supplemented with 10% fetal bovine serum (Gibco, 10099141), 100 U/mL penicillin, and 100 µg/mL streptomycin (Gibco, 15140122). After 0.95 mL of cells were plated in each well of a 24-well cell culture plate, 50 µL of diluted compound solution was added to corresponding wells with cells, such that the final concentration of the compound fell within the range of 0.01-3000 nM. The final concentration of DMSO was 0.25%. After the compound-treated cell plate was incubated in an incubator at 37° C. with 5% CO2 for 24 h, the cells were collected into 1.5 mL centrifuge tubes and centrifuged at 1000 rpm at 4° C. for 5 min. The cell pellets were washed twice with 1×DPBS. The resuspended cells were lysed with 100 μL of lysis buffer, left to stand on ice for 30 min, and then centrifuged at 14000 g at 4° C. for 10 min. The samples of the cell lysate supernatant after centrifugation were cryopreserved at −80° C. before testing. The cell lysis buffer was a Western and IP cell lysis buffer (Beyotime, P0013) supplemented with 1 mM phenylmethylsulfonyl fluoride and a protease inhibitor cocktail (Beyotime, P1008).
The total protein concentrations of the cell lysate samples were determined using a BCA protein quantification kit (Tiangen, PA115-02).
The prepared PBMC lysate samples were assayed for IRAK4 concentrations using a human IRAK4 AlphaLISA assay kit (PerkinElmer, AL3117C) to determine the degradation effects of the compounds on IRAK4. The method is as follows:
5 μL of each of IRAK4 standard solutions with different concentrations and test samples of cell lysate supernatant were added to a white 384-well plate (PerkinElmer, 6007299), and then 10 μL of 5× anti-IRAK4 […] beads was added to each well (final concentration of 10 μg/mL). The plate was incubated at room temperature for 30 min. Then 10 μL of 5× biotin-labeled anti-IRAK4 antibody was added to each well (final concentration of 1 nM), and the plate was incubated at room temperature for another 60 min. Finally, 25 μL of 2× streptavidin-labeled donor beads was added to each well (final concentration of 40 μg/mL), and the plate was incubated at room temperature for another 30 min. After the incubation was completed, AlphaLISA signal values were measured on a microplate reader EnVision (PerkinElmer, 2105) in the AlphaScreen standard mode. A standard curve was plotted from the AlphaLISA signal values of the IRAK4 standard solutions with different concentrations, and the IRAK4 concentration of each cell lysate supernatant was determined according to the corresponding concentrations on the standard curve for the AlphaLISA signal values of the test samples and by performing corresponding correction on the total protein concentration of each sample obtained by BCA quantification. The degradation rates for the compounds at each concentration were calculated by comparing the IRAK4 concentration with that of the control group. Then non-linear curve fittings for logarithmic concentration-inhibition rate were performed using GraphPad Prism 8, and the DC50 and Dmax values of the compound were obtained.

How did the DC50 turn out when `O=C1CCN(c2cc(C(=O)N3CCC4(CCC(CN5CCC(n6cc(NC(=O)c7cnn8ccc(N9C[C@H]%10C[C@@H]9CO%10)nc78)c(C(F)F)n6)CC5)CC4)CC3)ccc2Cl)C(=O)N1` [Example 1, 5-((1R,4R)-2-oxa-5-azabicyclo[2.2.1]heptan-5-yl)-N-(1-(1-((3-(4-chloro-3-(2,4-dioxotetrahydropyrimidin-1(2H)-yl)benzoyl)-3-azaspiro[5.5]undecan-9-yl)methyl)piperidin-4-yl)-3-(difluoromethyl)-1H-pyrazol-4-yl)pyrazolo[1,5-a]pyrimidine-3-carboxamide] was run?
Its DC50 is 1.28 nM.

And the Dmax?
Its Dmax is 99%.

Which results are given for `O=C1CCN(c2cc(C(=O)N3CCC4(CCN(C[C@H]5CC[C@H](n6cc(NC(=O)c7cnn8ccc(N9C[C@H]%10C[C@@H]9CO%10)nc78)c(C(F)F)n6)CC5)CC4)CC3)ccc2Cl)C(=O)N1` [Example 2, 5-((1R,4R)-2-oxa-5-azabicyclo[2.2.1]heptan-5-yl)-N-(1-((1r,4R)-4-((9-(4-chloro-3-(2,4-dioxotetrahydropyrimidin-1(2H)-yl)benzoyl)-3,9-diazaspiro[5.5]undecan-3-yl)methyl)cyclohexyl)-3-(difluoromethyl)-1H-pyrazol-4-yl)pyrazolo[1,5-a]pyrimidine-3-carboxamide]?
DC50: 1.56 nM; Dmax: 99.1%

`COc1ccc(C(=O)N2CCC3(CCC(CN4CCC(n5cc(NC(=O)c6cnn7ccc(N8C[C@H]9C[C@@H]8CO9)nc67)c(C(F)F)n5)CC4)CC3)CC2)cc1N1CCC(=O)NC1=O` [Example 3, 5-((1R,4R)-2-oxa-5-azabicyclo[2.2.1]heptan-5-yl)-N-(3-(difluoromethyl)-1-(1-((3-(3-(2,4-dioxotetrahydropyrimidin-1(2H)-yl)-4-methoxybenzoyl)-3-azaspiro[5.5]undecan-9-yl)methyl)piperidin-4-yl)-1H-pyrazol-4-yl)pyrazolo[1,5-a]pyrimidine-3-carboxamide] was tested. Which DC50 did it give?
The DC50 was 0.28 nM.

And the Dmax?
The Dmax was 97.7%.

With `O=C1CCN(c2cc(C(=O)N3CCC4(CCC(CN5CCC(n6cc(NC(=O)c7cnn8ccc(N9CCOCC9)nc78)c(C(F)F)n6)CC5)CC4)CC3)ccc2Cl)C(=O)N1` [Example 4, N-(1-(1-((3-(4-chloro-3-(2,4-dioxotetrahydropyrimidin-1(2H)-yl)benzoyl)-3-azaspiro[5.5]undecan-9-yl)methyl)piperidin-4-yl)-3-(difluoromethyl)-1H-pyrazol-4-yl)-5-morpholinopyrazolo[1,5-a]pyrimidine-3-carboxamide] as the molecule, how does the DC50 read?
The DC50 was 0.39 nM.

And the Dmax?
The Dmax was 97.2%.

What does the source list for `O=C1CCN(c2cc(C(=O)N3CCC4(CCC(CN5CCC(n6cc(NC(=O)c7cnn8ccc(N9CCNCC9)nc78)c(C(F)F)n6)CC5)CC4)CC3)ccc2Cl)C(=O)N1` [Example 5, N-(1-(1-((3-(4-chloro-3-(2,4-dioxotetrahydropyrimidin-1(2H)-yl)benzoyl)-3-azaspiro[5.5]undecan-9-yl)methyl)piperidin-4-yl)-3-(difluoromethyl)-1H-pyrazol-4-yl)-5-(piperazin-1-yl)pyrazolo[1,5-a]pyrimidine-3-carboxamide]?
DC50: 0.6 nM; Dmax: 98.8%

Which results are given for `COc1ccc(C(=O)N2CCC3(CCC(CN4CCC(n5cc(NC(=O)c6cnn7ccc(N8CC9CCC(C8)O9)nc67)c(C(F)F)n5)CC4)CC3)CC2)cc1N1CCC(=O)NC1=O` [Example 6, 5-(8-oxa-3-azabicyclo[3.2.1]octan-3-yl)-N-(3-(difluoromethyl)-1-(1-((3-(3-(2,4-dioxotetrahydropyrimidin-1(2H)-yl)-4-methoxybenzoyl)-3-azaspiro[5.5]undecan-9-yl)methyl)piperidin-4-yl)-1H-pyrazol-4-yl)pyrazolo[1,5-a]pyrimidine-3-carboxamide]?
DC50: 0.56 nM; Dmax: 97.9%

Which DC50 does the source give for `O=C1CCN(c2cc(C(=O)N3CCC(CCCCN4CCC(n5cc(NC(=O)c6cnn7ccc(N8C[C@H]9C[C@@H]8CO9)nc67)c(C(F)F)n5)CC4)CC3)ccc2Cl)C(=O)N1` [Example 7, 5-((1R,4R)-2-oxa-5-azabicyclo[2.2.1]heptan-5-yl)-N-(1-(1-(4-(1-(4-chloro-3-(2,4-dioxotetrahydropyrimidin-1(2H)-yl)benzoyl)piperidin-4-yl)butyl)piperidin-4-yl)-3-(difluoromethyl)-1H-pyrazol-4-yl)pyrazolo[1,5-a]pyrimidine-3-carboxamide] here?
Its DC50 is 0.39 nM.

And the Dmax?
The Dmax was 98.1%.

Which results are given for `O=C1CCN(c2cc(C(=O)N3CCC4(CCC(CN5CCC(n6cc(NC(=O)c7cnn8ccc(N9CCOCC9)nc78)c(C(F)F)n6)CC5)CC4)CC3)ccc2F)C(=O)N1` [Example 12, N-(3-(difluoromethyl)-1-(1-((3-(3-(2,4-dioxotetrahydropyrimidin-1(2H)-yl)-4-fluorobenzoyl)-3-azaspiro[5.5]undecan-9-yl)methyl)piperidin-4-yl)-1H-pyrazol-4-yl)-5-morpholinopyrazolo[1,5-a]pyrimidine-3-carboxamide]?
DC50: 0.37 nM; Dmax: 98%

Which DC50 does the source give for `Cc1ccc(C(=O)N2CCC3(CCC(CN4CCC(n5cc(NC(=O)c6cnn7ccc(N8CCOCC8)nc67)c(C(F)F)n5)CC4)CC3)CC2)cc1N1CCC(=O)NC1=O` [Example 13, N-(3-(difluoromethyl)-1-(1-((3-(3-(2,4-dioxotetrahydropyrimidin-1(2H)-yl)-4-methylbenzoyl)-3-azaspiro[5.5]undecan-9-yl)methyl)piperidin-4-yl)-1H-pyrazol-4-yl)-5-morpholinopyrazolo[1,5-a]pyrimidine-3-carboxamide] here?
The DC50 was 0.21 nM.

And the Dmax?
The Dmax was 98.2%.

Which DC50 does the source give for `COc1ccc(C(=O)N2CCC3(CCC(CCN4CCC(n5cc(NC(=O)c6cnn7ccc(N8CCOCC8)nc67)c(C(F)F)n5)CC4)CC3)CC2)cc1N1CCC(=O)NC1=O` [Example 16, N-(3-(difluoromethyl)-1-(1-(2-(3-(3-(2,4-dioxotetrahydropyrimidin-1(2H)-yl)-4-methoxybenzoyl)-3-azaspiro[5.5]undecan-9-yl)ethyl)piperidin-4-yl)-1H-pyrazol-4-yl)-5-morpholinopyrazolo [1,5-a]pyrimidine-3-carboxamide] here?
The DC50 was 0.7 nM.

What about the Dmax of the same molecule?
The Dmax was 98.4%.

For `O=C1CCN(c2cc(C(=O)N3CCC4(CCC(CCN5CCC(n6cc(NC(=O)c7cnn8ccc(N9CCOCC9)nc78)c(C(F)F)n6)CC5)CC4)CC3)ccc2Cl)C(=O)N1` [Example 20, N-(1-(1-(2-(3-(4-chloro-3-(2,4-dioxotetrahydropyrimidin-1(2H)-yl)benzoyl)-3-azaspiro[5.5]undecan-9-yl)ethyl)piperidin-4-yl)-3-(difluoromethyl)-1H-pyrazol-4-yl)-5-morpholinopyrazolo[1,5-a]pyrimidine-3-carboxamide], which DC50 is on record?
The DC50 was 0.72 nM.

What about the Dmax of the same molecule?
Its Dmax is 95.7%.

For `Cc1ccc(C(=O)N2CCC3(CCC(CN4CCC(n5cc(NC(=O)c6cnn7ccc(N8C[C@H]9C[C@@H]8CO9)nc67)c(C(F)F)n5)CC4)CC3)CC2)cc1N1CCC(=O)NC1=O` [Example 21, 5-((1R,4R)-2-oxa-5-azabicyclo[2.2.1]heptan-5-yl)-N-(3-(difluoromethyl)-1-(1-((3-(3-(2,4-dioxotetrahydropyrimidin-1(2H)-yl)-4-methylbenzoyl)-3-azaspiro[5.5]undecan-9-yl)methyl)piperidin-4-yl)-1H-pyrazol-4-yl)pyrazolo[1,5-a]pyrimidine-3-carboxamide], which DC50 is on record?
The DC50 was 0.45 nM.

What about the Dmax of the same molecule?
Its Dmax is 96.2%.
